Experiments:
[1] = system: A549-ACE2 infected with SARS-CoV-2; experiment: cell count relative to DMSO; higher = less toxic; conditions: 24 h
Caco-2 [2] = experiment: cell viability relative to DMSO; higher = less toxic; conditions: 72 h
Calu-3 [3] = experiment: as above; conditions: 72 h
HepG2 [4] = experiment: as above; conditions: 72 h
U2OS [5] = experiment: as above; conditions: 72 h
Vero E6 [6] = experiment: as above; conditions: 72 h
[7] = system: A549-ACE2 infected with SARS-CoV-2; experiment: SARS-CoV-2 infection rate relative to DMSO; higher = more infection; conditions: 24 h
A549-ACE2 [8] = experiment: phospholipidosis EC50; higher = less potent phospholipidosis inducer
A549-ACE2 [9] = experiment: drug-induced phospholipidosis relative to tamoxifen; higher = more phospholipidosis
[10] = system: A549-ACE2 infected with SARS-CoV-2; experiment: morphology score (similarity to uninfected cells); higher = more like uninfected cells; conditions: 24 h
Caco-2 [11] = experiment: relative viability EC50 (midpoint between 100% and the lowest measured viability); higher = less toxic; conditions: 72 h
Calu-3 [12] = experiment: as above; conditions: 72 h
HepG2 [13] = experiment: as above; conditions: 72 h
U2OS [14] = experiment: as above; conditions: 72 h
Vero E6 [15] = experiment: as above; conditions: 72 h
Caco-2 [16] = experiment: drug sensitivity score (DSS) for viability; higher = more toxic; extreme values may be limits of the assay; conditions: 72 h
Calu-3 [17] = experiment: as above; conditions: 72 h
HepG2 [18] = experiment: as above; conditions: 72 h
U2OS [19] = experiment: as above; conditions: 72 h
Vero E6 [20] = experiment: as above; conditions: 72 h

COc1cccc(CCc2ccccc2OCC[C@@H]2C[C@@H](O)CN2C)c1
Conditions | SARS-CoV-2 infection rate [%] | cell count [%] | cell viability [%] | morphology score | phospholipidosis EC50 [µM]
A549-ACE2 [8], 24 h | – | – | – | – | 4.19
A549-ACE2 [8], 48 h | – | – | – | – | 6.86
A549-ACE2 [8], 72 h | – | – | – | – | 13.6
Caco-2 [2], 1 nM | – | – | 96.1 | – | –
Caco-2 [2], 10 nM | – | – | 97.4 | – | –
Caco-2 [2], 100 nM | – | – | 104 | – | –
Caco-2 [2], 1000 nM | – | – | 85.9 | – | –
Caco-2 [2], 10000 nM | – | – | 90 | – | –
Calu-3 [3], 1 nM | – | – | 101 | – | –
Calu-3 [3], 10 nM | – | – | 92.9 | – | –
Calu-3 [3], 100 nM | – | – | 97.2 | – | –
Calu-3 [3], 1000 nM | – | – | 91.6 | – | –
Calu-3 [3], 10000 nM | – | – | 80.2 | – | –
HepG2 [4], 1 nM | – | – | 86.5 | – | –
HepG2 [4], 10 nM | – | – | 91.3 | – | –
HepG2 [4], 100 nM | – | – | 85.7 | – | –
HepG2 [4], 1000 nM | – | – | 96.8 | – | –
HepG2 [4], 10000 nM | – | – | 74.2 | – | –
U2OS [5], 1 nM | – | – | 101 | – | –
U2OS [5], 10 nM | – | – | 98.4 | – | –
U2OS [5], 100 nM | – | – | 100 | – | –
U2OS [5], 1000 nM | – | – | 98.3 | – | –
U2OS [5], 10000 nM | – | – | 92.9 | – | –
Vero E6 [6], 1 nM | – | – | 105 | – | –
Vero E6 [6], 10 nM | – | – | 102 | – | –
Vero E6 [6], 100 nM | – | – | 97.5 | – | –
Vero E6 [6], 1000 nM | – | – | 98.8 | – | –
Vero E6 [6], 10000 nM | – | – | 84.9 | – | –
[1], 0.3 µM | – | 97 | – | – | –
[1], 3 µM | – | 111 | – | – | –
[1], 10 µM | – | 119 | – | – | –
[1], 30 µM | – | 99 | – | – | –
[7], 0.3 µM | 105 | – | – | – | –
[7], 3 µM | 62 | – | – | – | –
[7], 10 µM | 22 | – | – | – | –
[7], 30 µM | 20 | – | – | – | –
[10], 0.3 µM | – | – | – | -0.09 | –
[10], 3 µM | – | – | – | 0.68 | –
[10], 10 µM | – | – | – | 0.87 | –
[10], 30 µM | – | – | – | 0.46 | –

drug-induced phospholipidosis [%], A549-ACE2 [9]
Conditions | 0.3 µM | 0.833333 µM | 3.33333 µM | 6.66667 µM | 10 µM | 30 µM
24 h | 0.95 | 6.59 | 62.7 | 89.3 | 95.1 | 128
48 h | 5.49 | 6.45 | 45.9 | 81.8 | 98.6 | 139
72 h | 4.74 | 4.21 | 42.1 | 79.5 | 98.4 | 166

Conditions | drug sensitivity score | relative viability EC50 [µM]
Caco-2 [11] | – | > 10
Caco-2 [16] | 1 | –
Calu-3 [12] | – | > 10
Calu-3 [17] | 0.9 | –
HepG2 [13] | – | > 10
HepG2 [18] | 0 | –
U2OS [14] | – | > 10
U2OS [19] | 0 | –
Vero E6 [15] | – | > 10
Vero E6 [20] | 0.3 | –

CCOc1ccc(-c2nc(-c3cccc4c3CCC4NCCO)no2)cc1OCC (stereo not given) [CYM-5442]
Conditions | SARS-CoV-2 infection rate [%] | cell count [%] | cell viability [%] | morphology score | phospholipidosis EC50 [µM]
A549-ACE2 [8], 24 h | – | – | – | – | 2.26
A549-ACE2 [8], 48 h | – | – | – | – | 3.87
A549-ACE2 [8], 72 h | – | – | – | – | 4.72
Caco-2 [2], 1 nM | – | – | 91 | – | –
Caco-2 [2], 10 nM | – | – | 96.9 | – | –
Caco-2 [2], 100 nM | – | – | 102 | – | –
Caco-2 [2], 1000 nM | – | – | 99.2 | – | –
Caco-2 [2], 10000 nM | – | – | 71.7 | – | –
Calu-3 [3], 1 nM | – | – | 94.6 | – | –
Calu-3 [3], 10 nM | – | – | 95.2 | – | –
Calu-3 [3], 100 nM | – | – | 91.2 | – | –
Calu-3 [3], 1000 nM | – | – | 104 | – | –
Calu-3 [3], 10000 nM | – | – | 92.8 | – | –
HepG2 [4], 1 nM | – | – | 97.5 | – | –
HepG2 [4], 10 nM | – | – | 101 | – | –
HepG2 [4], 100 nM | – | – | 90.5 | – | –
HepG2 [4], 1000 nM | – | – | 97.2 | – | –
HepG2 [4], 10000 nM | – | – | 78.8 | – | –
U2OS [5], 1 nM | – | – | 99 | – | –
U2OS [5], 10 nM | – | – | 95.7 | – | –
U2OS [5], 100 nM | – | – | 103 | – | –
U2OS [5], 1000 nM | – | – | 97 | – | –
U2OS [5], 10000 nM | – | – | 90.5 | – | –
Vero E6 [6], 1 nM | – | – | 90.7 | – | –
Vero E6 [6], 10 nM | – | – | 102 | – | –
Vero E6 [6], 100 nM | – | – | 84.5 | – | –
Vero E6 [6], 1000 nM | – | – | 94.7 | – | –
Vero E6 [6], 10000 nM | – | – | 99.1 | – | –
[1], 0.3 µM | – | 100 | – | – | –
[1], 3 µM | – | 118 | – | – | –
[1], 10 µM | – | 113 | – | – | –
[1], 30 µM | – | 104 | – | – | –
[7], 0.3 µM | 96 | – | – | – | –
[7], 3 µM | 55 | – | – | – | –
[7], 10 µM | 13 | – | – | – | –
[7], 30 µM | 19 | – | – | – | –
[10], 0.3 µM | – | – | – | 0.19 | –
[10], 3 µM | – | – | – | 0.72 | –
[10], 10 µM | – | – | – | 0.84 | –
[10], 30 µM | – | – | – | 0.63 | –

drug-induced phospholipidosis [%], A549-ACE2 [9]
Conditions | 0.3 µM | 0.833333 µM | 3.33333 µM | 6.66667 µM | 10 µM | 30 µM
24 h | 3.28 | 18.4 | 62.3 | 81.5 | 100 | 87.8
48 h | 3.02 | 11.2 | 44.6 | 72.9 | 96 | 93.9
72 h | 0.284 | 11.6 | 36.7 | 67.4 | 106 | 99.3

Conditions | drug sensitivity score | relative viability EC50 [µM]
Caco-2 [16] | 1.3 | –
Calu-3 [12] | – | > 10
Calu-3 [17] | 0 | –
HepG2 [13] | – | > 10
HepG2 [18] | 1.1 | –
U2OS [14] | – | > 10
U2OS [19] | 0 | –
Vero E6 [15] | – | > 10
Vero E6 [20] | 0 | –

— the supplement of paper PMC13380429
